# Article PMC12206033, “Selective inhibition of TRPV3 channel by natural rosmarinic acid and its analogs for alleviation of skin lesions through downregulation of NF-κB pathway” (The Journal of Biological Chemistry, 2025)
# Tests used:
# TRPV3 T636A [1] = molecular target: T1, TRPV3 T636A (Homo sapiens, UniProt Q8NET8, T636A); experiment: whole-cell patch-clamp of hTRPV3 T636A mutant currents; format: cell-based; settings: ROSA 100 μM; 2-APB; read-out: inhibition of macroscopic hTRPV3 T636A currents
# T1 construct: expressed in transfected cells; host or cells: HEK293T
# T1 sequence (Q8NET8 1-790 T636A): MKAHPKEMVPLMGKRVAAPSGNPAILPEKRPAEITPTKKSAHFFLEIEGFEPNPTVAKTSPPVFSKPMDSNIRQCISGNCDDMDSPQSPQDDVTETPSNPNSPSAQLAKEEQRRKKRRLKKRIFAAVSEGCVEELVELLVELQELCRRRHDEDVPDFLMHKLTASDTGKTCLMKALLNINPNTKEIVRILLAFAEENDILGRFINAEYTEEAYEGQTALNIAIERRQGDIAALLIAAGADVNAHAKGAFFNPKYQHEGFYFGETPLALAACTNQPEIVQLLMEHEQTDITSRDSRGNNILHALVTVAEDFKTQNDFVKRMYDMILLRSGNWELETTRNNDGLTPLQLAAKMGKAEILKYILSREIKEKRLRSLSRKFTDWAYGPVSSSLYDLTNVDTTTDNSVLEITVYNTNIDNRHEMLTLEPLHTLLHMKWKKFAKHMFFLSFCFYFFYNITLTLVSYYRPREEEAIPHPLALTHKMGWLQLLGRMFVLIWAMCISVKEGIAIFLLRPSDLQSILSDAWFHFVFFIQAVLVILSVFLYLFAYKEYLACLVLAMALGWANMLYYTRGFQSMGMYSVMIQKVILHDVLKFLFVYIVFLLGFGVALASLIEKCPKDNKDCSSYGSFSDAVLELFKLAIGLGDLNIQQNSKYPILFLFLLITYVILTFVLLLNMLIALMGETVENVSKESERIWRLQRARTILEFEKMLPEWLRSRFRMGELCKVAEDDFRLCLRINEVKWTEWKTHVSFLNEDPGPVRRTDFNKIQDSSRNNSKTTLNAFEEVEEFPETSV
# Description: (§1) HEK293T cell line was obtained from the Cell Resource Center, Peking Union Medical College. HEK293T cells were maintained in Dulbecco’s modified Eagle’s medium (DMEM, Gibco) supplemented with 10% fetal bovine serum at 37 °C with 5% CO2. […] The next day, determine the plasmid transfection status by observing green fluorescence based on expression of enhanced GFP as an indicator. […] When conducting experiments on HEK293T cells transfected with G573S point mutant TRPV3 plasmid, we replaced culture medium with or without compounds after 4 h of transfection and then observed green fluorescence of HEK293T cell after 10 h. As for the relative fluorescence intensity, we convert the image to 8 bit grayscale using ImageJ (Https://imagej.net/software/fiji/downloads) and set an appropriate threshold value to reduce background noise and enhance the image contrast.
# (§2) All patch-clamp recordings were conducted 16 to 24 h after transfection using an EPC10 amplifier powered by PatchMaster software (HEKA) (https://www.heka.com/downloads/downloads_main.html#down_patchmaster) at room temperature. […] Currents were recorded at a potential ramp from −100 mV to +100 mV for 1000 ms with 1000-ms intervals (for whole-cell recordings) or a persistent potential of −60 mV (inside-out patch recordings). […]
# TRPV3 T636A [2] = molecular target: T1, TRPV3 T636A; experiment: single-channel inside-out patch recordings of TRPV3 T636A mutant; format: cell-based; settings: ROSA 100 μM co-applied with 2-APB 50 μM; n = 4
# Description: as §1, §2
compound,measurement,setting,value
"O=C(/C=C/c1ccc(O)c(O)c1)O[C@H](Cc1ccc(O)c(O)c1)C(=O)O [ROSA, rosmarinic acid]",inhibition at 100 µM,TRPV3 T636A [1],14.7%
same,"single-channel open probability, T636A mutant",TRPV3 T636A [2],0.67
